Measurements published in article PMC8637020, “Drug Repositioning For Allosteric Modulation of VIP and PACAP Receptors” (Frontiers in Endocrinology, 2021).

How the values were obtained:
VPAC1 = biological target: T1, VPAC1 (Homo sapiens, UniProt P32241); assay: FAM-VIP competition binding by FACS ([…] VIP binding left at […]) and aequorin calcium mobilization in CHO cells expressing VPAC1; IC50 extrapolated from the partial calcium inhibition; type: cell-based
T1 construct: gene VIPR1
T1 sequence (P32241 31-457): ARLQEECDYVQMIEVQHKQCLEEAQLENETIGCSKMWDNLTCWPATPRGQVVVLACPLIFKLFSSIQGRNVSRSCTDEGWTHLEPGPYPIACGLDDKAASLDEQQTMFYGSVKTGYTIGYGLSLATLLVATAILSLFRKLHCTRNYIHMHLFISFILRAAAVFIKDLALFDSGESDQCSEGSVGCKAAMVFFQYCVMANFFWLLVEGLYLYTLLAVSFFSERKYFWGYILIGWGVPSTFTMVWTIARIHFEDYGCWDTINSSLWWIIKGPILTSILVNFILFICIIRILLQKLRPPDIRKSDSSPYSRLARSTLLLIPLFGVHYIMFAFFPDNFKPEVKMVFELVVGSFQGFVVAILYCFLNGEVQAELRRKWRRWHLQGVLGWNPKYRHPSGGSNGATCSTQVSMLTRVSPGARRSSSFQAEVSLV

VPAC2 = biological target: T2, VPAC2 (Homo sapiens, UniProt P41587); assay: FAM-VIP competition binding by FACS ([…] VIP binding left at […]) and aequorin calcium mobilization in CHO cells expressing VPAC2; IC50 extrapolated from the partial calcium inhibition; type: cell-based
T2 construct: gene VIPR2
T2 sequence (P41587 24-438): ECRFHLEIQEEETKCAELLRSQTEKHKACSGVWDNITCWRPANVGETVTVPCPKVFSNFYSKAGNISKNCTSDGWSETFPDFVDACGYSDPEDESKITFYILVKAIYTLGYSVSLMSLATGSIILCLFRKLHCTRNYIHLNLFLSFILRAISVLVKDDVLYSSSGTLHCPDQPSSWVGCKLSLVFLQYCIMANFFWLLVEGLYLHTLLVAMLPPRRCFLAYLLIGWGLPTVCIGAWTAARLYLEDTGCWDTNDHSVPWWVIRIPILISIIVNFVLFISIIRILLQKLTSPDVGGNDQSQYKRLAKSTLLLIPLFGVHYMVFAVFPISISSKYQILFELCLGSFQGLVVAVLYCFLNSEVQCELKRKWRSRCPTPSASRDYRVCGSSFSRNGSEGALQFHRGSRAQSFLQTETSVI

IC50 (VPAC1): ~50 µM
IC50 (VPAC2): ~20 µM
SMILES: CCCSc1nc(N[C@@H]2C[C@H]2c2ccc(F)c(F)c2)c2nnn([C@@H]3C[C@H](OCCO)[C@@H](O)[C@H]3O)c2n1 [ticagrelor]
